# Source: patent US20250215071A1, “Novel Mcl-1 inhibitor and combination of Mcl-1 and a BH3 mimetic, such as a Bcl-2 inhibitor” (NETRIS PHARMA, priority 2022, published 2025)
# System: Mcl-1
# Assay: Mcl-1 protein levels by western blot in HeLa UNC5B cells
# Assay type: cell-based, Human
# Details: 2 μg/mL Dox
# Protocol: FIG. 4. UNC5B triggers proteasomal degradation of Mcl-1. (A,B): UNC5B-induced apoptosis requires proteasome activity. Stable Hela cells inducible for UNC5B (HeLa UNC5B) were treated with doxycycline (Dox) at 2 μg/mL, in combination with the indicated doses of the proteasome inhibitors MG132 and bortezomib (BTZ). 18 hours after treatment, apoptosis was measured by DNA fragmentation (A) and caspase-3 activity (B) (n=3-4, **** p<0.0001, ordinary two-way ANOVA with Tukey's multiple comparisons test). Values are given as means±SEM Treatment with proteasome inhibitors was sufficient to strongly reduce apoptosis induction upon UNC5B over-expression. (C): UNC5B triggers Mcl-1 degradation. HeLa UNC5B cells were treated with 2 μg/mL of Dox, in combination with bortezomib (BTZ, 1 μM) and the pan-caspase inhibitor Q-VD-OPh (QVD, 10 µM) inhibitors. 16 hours after treatment, cells were lysed by scraping and sonication in SDS-containing buffer. Protein levels of Mcl-1, Bcl-2 and Bcl-XL, as well as of UNC5B and B-actin, used as housekeeping gene, were evaluated by western blot. […] UNC5B over-expression specifically promoted Mcl-1 protein decrease. […] (D): Mcl-1 degradation induced by UNC5B requires COMMD2/CRL3 complex. HeLa UNC5B cells were transfected with scramble (siCTRL), COMMD2 (siCOMMD2) or RBX1 (siRBX1) siRNAs. […] Protein levels of Mcl-1, UNC5B and Ku80, used as housekeeping protein, were evaluated by western blot. […] Stable HeLa UNC5B cells, constitutively expressing Mcl-1 or empty vector, were treated with doxycycline and apoptosis was evaluated 18 hours later by DNA fragmentation (n=3, ^nsp>0.05, ordinary two-way ANOVA with Sidak's multiple comparisons test). […] Stable HeLa UNC5B cells, constitutively expressing Mcl-1, Bcl-2 or Bcl-XL were treated with Dox and protein levels were evaluated as described in (C). […] 18 hours later, protein levels of Mcl-1, UNC5B and β-actin, used as housekeeping gene, were evaluated by western blot. […] Cells were harvested at the indicated times after CHX treatment, and protein levels were assessed by western blot. […]
compound,measurement,setting,value
CC(C)C[C@H](NC(=O)[C@H](Cc1ccccc1)NC(=O)c1cnccn1)B(O)O [bortezomib],degradation of ectopically-expressed Mcl-1,"HeLa UNC5B cells constitutively expressing Mcl-1, 18 hours",restrained the degradation
same,Mcl-1 protein levels / degradation triggered by UNC5B,"endogenous Mcl-1, BTZ 1 μM, QVD 10 µM, 16 hours",increased but similar Mcl-1 protein levels in both untreated and doxycycline-treated cells
